Where “and” joins values, the source holds several entries; their conditions need not be identical. Equal values may be shown once. Each block holds one compound with its values, some of them ahead of it.
Legend:
[1] = molecular target: GR (Homo sapiens, UniProt P04150); assay: Off-target profiling panel; type: binding; details: read-out: Inhibition by MBE1 at 10 μM (%)
[2] = molecular target: CB1 (Homo sapiens, UniProt P21554); assay: Off-target profiling panel; type: binding; details: read-out: Inhibition by MBE1 at 10 μM (%)
Sequence of CB1 (P21554 whole entry): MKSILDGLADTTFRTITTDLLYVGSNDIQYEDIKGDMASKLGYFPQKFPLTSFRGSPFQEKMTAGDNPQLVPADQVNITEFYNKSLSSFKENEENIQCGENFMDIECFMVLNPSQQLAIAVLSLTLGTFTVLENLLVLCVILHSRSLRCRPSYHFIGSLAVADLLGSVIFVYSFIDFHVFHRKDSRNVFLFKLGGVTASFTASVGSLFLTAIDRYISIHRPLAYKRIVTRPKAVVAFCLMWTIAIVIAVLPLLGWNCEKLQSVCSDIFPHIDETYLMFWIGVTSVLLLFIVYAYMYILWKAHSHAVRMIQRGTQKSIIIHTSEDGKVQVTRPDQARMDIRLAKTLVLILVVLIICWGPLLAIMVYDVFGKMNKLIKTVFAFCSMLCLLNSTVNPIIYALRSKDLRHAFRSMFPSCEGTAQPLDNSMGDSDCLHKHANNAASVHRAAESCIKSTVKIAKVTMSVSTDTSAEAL

[3] = molecular target: Beta1 (Homo sapiens, UniProt P08588); assay: Off-target profiling panel; type: binding; details: read-out: Inhibition by MBE1 at 10 μM (%)
Sequence of Beta1 (P08588 whole entry): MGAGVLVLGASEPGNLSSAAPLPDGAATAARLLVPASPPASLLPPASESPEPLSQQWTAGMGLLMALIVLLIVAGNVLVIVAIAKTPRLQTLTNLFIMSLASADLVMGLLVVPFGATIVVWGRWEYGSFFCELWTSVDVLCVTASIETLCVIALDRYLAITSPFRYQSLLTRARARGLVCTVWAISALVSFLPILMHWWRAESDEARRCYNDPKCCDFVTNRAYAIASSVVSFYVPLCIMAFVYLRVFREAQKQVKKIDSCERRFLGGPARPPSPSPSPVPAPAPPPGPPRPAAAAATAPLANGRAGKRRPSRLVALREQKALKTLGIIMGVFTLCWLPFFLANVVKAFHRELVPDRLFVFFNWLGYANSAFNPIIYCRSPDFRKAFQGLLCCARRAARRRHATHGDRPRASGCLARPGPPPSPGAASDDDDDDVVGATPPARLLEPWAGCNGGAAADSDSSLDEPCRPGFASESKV

[4] = molecular target: hNav1.5 (Homo sapiens, UniProt Q14524); assay: Off-target profiling panel; type: cell-based; details: read-out: Inhibition by MBE1 at 10 μM (%)
Sequence of hNav1.5 (Q14524 whole entry): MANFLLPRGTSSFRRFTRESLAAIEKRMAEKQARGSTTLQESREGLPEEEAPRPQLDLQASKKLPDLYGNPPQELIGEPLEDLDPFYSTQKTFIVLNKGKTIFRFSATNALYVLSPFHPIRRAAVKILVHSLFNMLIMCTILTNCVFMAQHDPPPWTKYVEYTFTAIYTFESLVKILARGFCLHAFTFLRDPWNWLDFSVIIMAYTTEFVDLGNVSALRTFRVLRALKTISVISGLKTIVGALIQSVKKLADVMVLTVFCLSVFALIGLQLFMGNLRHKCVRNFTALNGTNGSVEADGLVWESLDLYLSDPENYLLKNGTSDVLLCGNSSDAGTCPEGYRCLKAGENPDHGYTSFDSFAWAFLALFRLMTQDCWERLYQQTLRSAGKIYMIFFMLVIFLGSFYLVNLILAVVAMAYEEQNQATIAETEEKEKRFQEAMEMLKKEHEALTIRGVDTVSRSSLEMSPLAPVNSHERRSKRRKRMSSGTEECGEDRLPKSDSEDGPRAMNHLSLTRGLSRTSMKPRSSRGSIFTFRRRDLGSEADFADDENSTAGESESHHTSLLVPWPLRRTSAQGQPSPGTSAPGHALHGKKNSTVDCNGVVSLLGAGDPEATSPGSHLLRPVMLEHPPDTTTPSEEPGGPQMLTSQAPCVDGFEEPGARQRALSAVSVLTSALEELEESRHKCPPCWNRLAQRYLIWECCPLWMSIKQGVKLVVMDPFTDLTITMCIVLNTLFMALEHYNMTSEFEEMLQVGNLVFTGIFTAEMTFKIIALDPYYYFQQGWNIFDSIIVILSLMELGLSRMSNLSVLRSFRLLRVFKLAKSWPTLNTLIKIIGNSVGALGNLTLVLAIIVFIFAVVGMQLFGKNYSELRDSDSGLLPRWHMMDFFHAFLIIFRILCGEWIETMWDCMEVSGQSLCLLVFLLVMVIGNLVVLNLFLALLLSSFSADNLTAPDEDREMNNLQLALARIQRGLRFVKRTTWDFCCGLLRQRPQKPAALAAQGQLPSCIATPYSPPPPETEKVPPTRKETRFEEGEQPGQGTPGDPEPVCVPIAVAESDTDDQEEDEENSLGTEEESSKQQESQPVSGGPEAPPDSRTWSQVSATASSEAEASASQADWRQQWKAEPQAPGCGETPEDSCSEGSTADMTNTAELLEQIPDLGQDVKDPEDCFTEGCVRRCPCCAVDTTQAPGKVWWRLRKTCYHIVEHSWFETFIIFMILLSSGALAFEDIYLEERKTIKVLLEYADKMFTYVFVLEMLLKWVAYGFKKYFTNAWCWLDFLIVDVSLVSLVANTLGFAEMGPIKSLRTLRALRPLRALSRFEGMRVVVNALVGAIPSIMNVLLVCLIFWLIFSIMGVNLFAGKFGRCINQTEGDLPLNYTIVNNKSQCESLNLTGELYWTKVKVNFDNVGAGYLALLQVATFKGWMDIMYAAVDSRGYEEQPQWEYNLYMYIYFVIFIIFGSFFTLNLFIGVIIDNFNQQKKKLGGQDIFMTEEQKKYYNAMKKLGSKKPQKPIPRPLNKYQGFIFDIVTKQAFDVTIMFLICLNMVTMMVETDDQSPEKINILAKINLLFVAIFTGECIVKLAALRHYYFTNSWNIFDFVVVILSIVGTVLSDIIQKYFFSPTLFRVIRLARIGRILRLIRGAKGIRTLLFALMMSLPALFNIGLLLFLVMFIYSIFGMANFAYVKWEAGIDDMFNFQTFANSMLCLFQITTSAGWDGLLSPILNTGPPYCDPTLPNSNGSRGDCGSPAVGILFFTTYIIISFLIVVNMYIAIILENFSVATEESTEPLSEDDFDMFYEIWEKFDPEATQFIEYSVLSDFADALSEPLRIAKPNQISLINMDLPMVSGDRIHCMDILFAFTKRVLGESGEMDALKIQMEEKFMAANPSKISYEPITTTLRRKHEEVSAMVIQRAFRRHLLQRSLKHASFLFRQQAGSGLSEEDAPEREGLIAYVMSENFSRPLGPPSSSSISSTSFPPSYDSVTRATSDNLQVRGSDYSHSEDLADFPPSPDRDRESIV

[5] = molecular target: M2 (Homo sapiens, UniProt P08172); assay: Off-target profiling panel; type: binding; details: read-out: Inhibition by MBE1 at 10 μM (%)
Sequence of M2 (P08172 whole entry): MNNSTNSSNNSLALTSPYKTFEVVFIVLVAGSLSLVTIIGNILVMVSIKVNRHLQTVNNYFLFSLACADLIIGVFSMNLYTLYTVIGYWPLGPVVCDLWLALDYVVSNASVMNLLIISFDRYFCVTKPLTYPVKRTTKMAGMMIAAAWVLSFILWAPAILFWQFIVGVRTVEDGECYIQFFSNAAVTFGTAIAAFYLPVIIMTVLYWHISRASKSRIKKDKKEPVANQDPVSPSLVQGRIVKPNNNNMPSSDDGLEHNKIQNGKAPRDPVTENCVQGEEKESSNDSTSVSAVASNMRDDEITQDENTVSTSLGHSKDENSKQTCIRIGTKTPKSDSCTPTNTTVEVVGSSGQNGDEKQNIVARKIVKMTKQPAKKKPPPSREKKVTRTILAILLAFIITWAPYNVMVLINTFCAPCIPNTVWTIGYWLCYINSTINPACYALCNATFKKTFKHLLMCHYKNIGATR

[6] = molecular target: 5HT2A (Homo sapiens, UniProt P28223); assay: Off-target profiling panel; type: binding; details: read-out: Inhibition by MBE1 at 10 μM (%)
[7] = system: AsPC-1 cells; assay: Metabolomic profiling of treated cell lines (raw metabolite counts); type: cell-based; details: AsPC-1:MBE, replicates
Text: Supplement mmc8.xlsx, sheet "Supplement Table 7" | column: AsPC-1:MBE

[8] = molecular target: 5HT1B (Homo sapiens, UniProt P28222); assay: Off-target profiling panel; type: binding; details: read-out: Inhibition by MBE1 at 10 μM (%)
Sequence of 5HT1B (P28222 whole entry): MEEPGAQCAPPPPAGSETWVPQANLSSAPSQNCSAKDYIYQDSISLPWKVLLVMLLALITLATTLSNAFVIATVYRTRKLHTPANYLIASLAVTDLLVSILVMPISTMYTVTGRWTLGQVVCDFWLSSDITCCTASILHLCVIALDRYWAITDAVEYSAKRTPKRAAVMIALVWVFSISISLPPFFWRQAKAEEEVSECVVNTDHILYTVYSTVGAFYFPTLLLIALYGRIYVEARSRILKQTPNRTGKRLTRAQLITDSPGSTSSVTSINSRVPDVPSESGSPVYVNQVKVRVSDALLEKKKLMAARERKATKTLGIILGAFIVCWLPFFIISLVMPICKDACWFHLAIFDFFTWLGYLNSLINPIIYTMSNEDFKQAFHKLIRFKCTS

[9] = molecular target: nACHR-Alpha7 (Homo sapiens, UniProt P36544); assay: biochemical; type: binding; details: read-out: Inhibition by MBE1 at 10 μM (%)
[10] = molecular target: Eta agonist (Homo sapiens, UniProt P25101); assay: Off-target profiling panel; type: cell-based; details: read-out: Inhibition by MBE1 at 10 μM (%)
Sequence of Eta agonist (P25101 21-427): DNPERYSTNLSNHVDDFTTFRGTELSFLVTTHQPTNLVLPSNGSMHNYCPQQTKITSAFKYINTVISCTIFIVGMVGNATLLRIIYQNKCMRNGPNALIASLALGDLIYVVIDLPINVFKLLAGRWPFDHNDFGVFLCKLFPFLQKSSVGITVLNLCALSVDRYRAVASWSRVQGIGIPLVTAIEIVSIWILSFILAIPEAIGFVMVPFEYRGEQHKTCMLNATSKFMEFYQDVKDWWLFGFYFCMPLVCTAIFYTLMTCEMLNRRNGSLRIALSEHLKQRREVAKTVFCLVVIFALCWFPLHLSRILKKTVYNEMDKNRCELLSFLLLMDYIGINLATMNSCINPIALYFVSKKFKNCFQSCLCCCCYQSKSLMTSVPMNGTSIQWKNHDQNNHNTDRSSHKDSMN

[11] = system: ALDH1A3 mRNA; assay: RT-qPCR of ALDH1A3 mRNA after treatment; type: cell-based, human; details: multiple cell lines
[12] = Serum concentration on MBE1.5-formulated diet; type: in vivo, mouse
Experimental: Finally, to establish a pharmacokinetic profile throughout dosing, MBE1.5 was analyzed in serum 12 h post dose on day 1 and day 7. […] To accommodate consistent plasma concentrations without accumulation, MBE1.5 was formulated to a lower concentration in mouse diet that would administer a dose equivalent to 25 mg/kg daily. This formulated diet was provided to mice for 5 days, at which point serum was analyzed for MBE1.5 concentration at 6:30 a.m. and 4:00 p.m. on day 5 to capture differences in mouse feeding cycles.
No statistical method was used to predetermine the number of animals needed across experiments. […]
proteome profiling in A375 cells was performed in DMSO and at two concentrations of MBE1 using a 10 temperature melting curve for isolation, followed by proteomic analysis, filtering and mapping peptide frequency as a composite melting curve, n=3 biological replicates per condition-temperature. […] ALDH1A3 or NPTN were assessed by WB to confirm the stabilization of ALDH1A3 but not NPTN (55kD, as indicated by arrow) by MBE1. […]
analysis of MBE1.5 following identification of proper formulations and administration to fasted male CD1 mice at 1 mg/kg intravenous (IV) and 10 mg/kg oral gavage (PO). n = 3 mice per arm. […] Upon acclimation, serum MBE1.5 concentrations were calculated following blood draws at 6:30 am and 4 pm. n = 5 mice per arm. […]

Sequence of GR (P04150 whole entry): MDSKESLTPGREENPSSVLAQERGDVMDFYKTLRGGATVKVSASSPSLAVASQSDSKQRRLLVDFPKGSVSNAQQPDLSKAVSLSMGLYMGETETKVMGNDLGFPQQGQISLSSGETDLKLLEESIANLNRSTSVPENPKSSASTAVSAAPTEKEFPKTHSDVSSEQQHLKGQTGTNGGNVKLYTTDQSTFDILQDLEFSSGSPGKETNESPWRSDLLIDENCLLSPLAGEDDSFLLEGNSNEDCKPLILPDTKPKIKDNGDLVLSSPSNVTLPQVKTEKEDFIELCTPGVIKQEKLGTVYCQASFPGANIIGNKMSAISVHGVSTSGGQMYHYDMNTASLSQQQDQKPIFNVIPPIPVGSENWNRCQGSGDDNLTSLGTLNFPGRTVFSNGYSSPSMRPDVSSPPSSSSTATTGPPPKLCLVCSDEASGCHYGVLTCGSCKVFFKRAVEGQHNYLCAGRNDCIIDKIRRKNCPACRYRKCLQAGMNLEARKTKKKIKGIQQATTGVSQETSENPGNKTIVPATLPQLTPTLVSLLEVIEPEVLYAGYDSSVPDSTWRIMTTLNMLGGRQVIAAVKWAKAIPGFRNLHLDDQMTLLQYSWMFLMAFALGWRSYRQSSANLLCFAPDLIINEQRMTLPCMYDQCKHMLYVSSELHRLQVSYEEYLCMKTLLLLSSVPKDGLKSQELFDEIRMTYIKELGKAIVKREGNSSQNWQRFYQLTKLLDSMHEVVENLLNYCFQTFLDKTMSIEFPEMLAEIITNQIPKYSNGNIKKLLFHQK

Compound: CCc1cnccc1C(=O)Nc1cc2c(cc1F)NC(=O)CC2 [MBE1, 3-ethyl-N-(7-fluoro-2-oxo-3,4-dihydro-1H-quinolin-6-yl)pyridine-4-carboxamide]
- inhibition at 10 µM [1]: -13.5%
- inhibition at 10 µM [2]: -7.11%
- inhibition at 10 µM [3]: -8.49%
- inhibition at 10 µM [4]: -0.59%
- inhibition at 10 µM [5]: -6.51%
- inhibition at 10 µM [6]: -16.1%
- Raw counts of 2-Hydroxybutyric acid [7]: 407527 and 409338 and 391016
- Raw counts of 3-Hydroxybutyric acid [7]: 935326 and 777510 and 811161
- Raw counts of 3-Phosphoglycerate [7]: 27569.7 and 29653.8 and 33692.4
- Raw counts of 3-Phosphoserine [7]: 0
- Raw counts of 6-Phosphogluconate [7]: 2283.86 and 2700.65 and 2716.13
- Raw counts of Carbamoyl phosphate [7]: 77497 and 91797.1 and 80487.7
- Raw counts of Citrulline [7]: 767940 and 822514 and 761078
- Raw counts of Cytidine [7]: 42547.3 and 33951.9 and 31568.3
- Raw counts of Hypoxanthine [7]: 6602890 and 6349420 and 6667202
- Raw counts of Isoleucine [7]: 8463643 and 7729570 and 8029520
- Raw counts of Lactate [7]: 2.84E+08 and 2.40E+08 and 2.49E+08
- Raw counts of Leucine [7]: 1.56E+07 and 1.48E+07 and 1.55E+07
- Raw counts of Methionine [7]: 3519797 and 3454298 and 3337800
- Raw counts of N-acetyl-glutamine [7]: 14303 and 11323.4 and 0
- Raw counts of Orotate [7]: 62546.3 and 65785 and 58119.5
- Raw counts of Phenylalanine [7]: 9403483 and 9101309 and 9197218
- Raw counts of Phosphoenolpyruvate [7]: 23786.2 and 24455.1 and 27616
- Raw counts of Pyridoxine [7]: 1078977 and 951150 and 1075404
- Raw counts of Pyruvate [7]: 3.56E+07 and 3.45E+07 and 3.67E+07
- Raw counts of Ribitol [7]: 1829543 and 1600997 and 2014101
- Raw counts of Sorbitol [7]: 2.37E+07 and 2.26E+07 and 2.62E+07
- Raw counts of Taurine [7]: 5285632 and 4263876 and 4897168
- Raw counts of Tryptophan [7]: 2709598 and 2662217 and 2730749
- Raw counts of Tyrosine [7]: 5411932 and 5220208 and 5418708
- Raw counts of UDP [7]: 31905 and 38800.3 and 38337.9
- Raw counts of Uracil [7]: 1743558 and 1602379 and 1692033
- Raw counts of Uridine [7]: 1071683 and 996648 and 1101788
- Raw counts of Valine [7]: 1.20E+07 and 1.17E+07 and 1.23E+07
- Raw counts of Xanthine [7]: 6452708 and 5994216 and 6427826
- inhibition at 10 µM [8]: 5.26%
- inhibition at 10 µM [9]: -9.85%
- inhibition at 10 µM [10]: -0.16%

- concentration at 5 day ([12]; C57BL/6, mouse, serum, oral, 25 mg/kg daily, day 5, read-out: nadir serum concentration): ~270 nM
- nadir serum concentration as multiple of IC50 in the retinoid assay ([12]; day 5): more than 100 fold
Compound: CCc1ccccc1C(=O)Nc1cc2c(cc1F)NC(=O)CC2 [MBE1.5, 2-ethyl-N-(7-fluoro-2-oxo-3,4-dihydro-1H-quinolin-6-yl)benzamide]
- feedback effect on ALDH1A3 expression (in words) [11]: no feedback effect

Source: paper PMC12595434, “Development of retinoid nuclear receptor pathway antagonists through targeting aldehyde dehydrogenase 1A3” (iScience, 2025)
